Here are results for six compounds from patent publication US20230167497A1, “METHODS OF IDENTIFYING MODULATORS OF THE IL-17 PATHWAY” (Janssen Pharmaceutica NV, priority 2020, published 2023).

What is called IC50 is the concentration at which inhibition is half-maximal.

In data set [1] the test system is rhIL-17A stimulated G-CSF production in normal human keratinocytes (NHK). Kind of data set: NHK G-CSF assay with rhIL-17A stimulation. It counts as cell-based. The settings on record: for inhibition of IL-17 stimulated G-CSF production: concentrations tested, FIGS. 2A and 2C; for dose dependent G-CSF levels: various doses, FIG. 3.
For data set [2], the system named is TNFa secretion by LPS stimulated hPBMCs. The settings on record: Wadsworth et al. 1999, read-out: IC50 (Literature), inhibition of TNFa secretion; cited from earlier work.
In data set [3] the test system is IL-17A-stimulated gene panel in NHKs. Kind of data set: QuantiGene Plex gene panel expression, NHK stimulated with recombinant IL-17A. It counts as cell-based, human. The settings on record: NHKs stimulated with recombinant IL-17A, FIGS. 5A and 5B. The procedure:
A panel of IL-17A-stimulated genes was identified, initially through microarray experiments and later confirmed by RT-PCR, to assess modulators of the IL-17 pathway as shown in Table 2. Expression levels of the genes in the panel were measured using QuantiGene® Plex Gene Expression assay in human keratinocytes treated with human recombinant IL-17A and compounds as described in Example 1.
After the 24 hour incubation with IL-17A with and without compounds, 50 μl Lysis buffer (QuantiGene, ThermoFisher) was added to each well containing 100 μl cells. The plate was covered and incubated for 30 minutes in a VorTemp set at 50-55° C., 170 rpm to lyse the cells. The plate was then kept frozen at −80° C. On the day of QuantiGene experiments, samples and reagents were prepared and assay was conducted according the manufacturer's protocol (QuantiGene, ThermoFisher). At the final step, the sample plate was read on a Luminex MagPix® instrument (Luminex; Austin, Tex.) for fluorescent intensity signals.
The raw expression value of a given gene (g) in a sample (S) was quantified as the median of raw fluorescent intensity of the corresponding probe. Normalization factor of each sample S was determined by the raw expression of four housekeeping genes, ACTB, GAPDH, HPRT1, and PPIB, as the ratio of the geometric mean (geomean) of the four housekeeping genes in sample S vs. the geomean of the four housekeeping genes among all samples. The normalized expression value of each gene in sample S was further quantified as the raw expression value divided by the normalization factor in sample S.
Changes in expression of gene g in keratinocytes in response to IL-17A stimulation was calculated as the ratio of the geomean of its normalized expression values in IL-17A stimulated samples vs. that in unstimulated samples. For each gene g, the relative expression value in sample S (Rel_Exp_S) was further determined by its normalized expression in sample S (Norm_Exp_S) and the geomeans of its normalized expression in IL-17A stimulated samples (GM_Norm_Exp_Stim) and unstimulated samples (GMNorm_Exp_UnStim), using formula as: Rel_Exp_S=(Norm_Exp_S−GM_Norm_Exp_UnStim)/(GM_Norm_Exp_Stim−GM_Norm_Exp_UnStim).

In data set [4] the test system is IL-β secretion by LPS stimulated hPBMCs. The note with it: Wadsworth et al. 1999, read-out: IC50 (Literature), inhibition of IL-β secretion; cited from earlier work.
In data set [5] the test system is Th17 conditioned media stimulated G-CSF production in normal human keratinocytes (NHK). Kind of data set: NHK G-CSF assay with Th17 conditioned media stimulation. It counts as cell-based. The settings on record: for inhibition of G-CSF production: NHK, Th17 conditioned media, FIG. 4A; for IC50: Th17 conditioned media stimulated NHK (footnote 15). The procedure: In order to test potential modulators of the IL-17 pathway, normal human keratinocytes (NHK) were incubated with either recombinant IL-17A or Th17 conditioned media and potential inhibitor compounds, and then levels of granulocyte colony-stimulating factor (G-CSF) in the cell supernatant were measured as described in detail below.
Peripheral blood mononuclear cells (PBMCs) were isolated from human whole blood using Ficoll-Paque density gradient centrifugation (Ficoll-Paque, GE, 17-1440-03) using SepMate tubes (StemCell technologies, 85450). […] CD4+ T cells were isolated through manual magnetic labeling and cell separation (LS column, Miltenyi Biotec, 130-042-401) following vendor protocol (Miltenyi Biotec, 130 533). CD4+ T cells were seeded on 24-well plates at 2×10^6 cells/mL in 500 μL of RPMI Media (RPMI 1640, Hyclone, SH30096.01) supplemented with 10% FBS, penicillin-streptomycin (Sigma, P0781-100 ml), L-glutamine (Sigma, G7513-100ML), and 2-Mercaptoethanol (Gibco, 21985-023). Th17 polarization media was prepared in RPMI media and 250 μL was added to each well at a final concentration of: anti-CD3/anti-CD28 beads, prepared using T cell activation/expansion kit (Miltenyi Biotec, 130-091-441), at 2× cell number per well, anti-human interleukin-4 (IL-4) [10 ug/mL], anti-human interferon gamma (IFNγ) [10 ug/mL] antibodies (ThermoFisher, 16-7048-85, 16-7318-85), human IL-2 [60 U/mL] (Pepro Tech, 200-02), human IL-1β [10 ng/mL], human IL-23 [10 ng/mL], human IL-6 [50 ng/mL], and human TGFβ [12 ng/mL] (R&D Systems, 201-LB-010, 1290-IL-010, 206-IL-010, 240-B-010). […] The level of human IL-17A in Th17 conditioned media was determined using DuoSet ELISA kits following the vendor protocol (R&D Systems, DY317-05, DY5194-05, DY1335B-05). Human IL-17A was detected in Th17 conditioned media, while unstimulated, undifferentiated CD4+ T cells had no detectable level of IL-17A in the supernatant (FIG. 1). […]
After overnight culture, cell supernatant was carefully collected for G-CSF detection, and cells were further analyzed for viability or gene expression
G-CSF levels were measured using the Human G-CSF Homogeneous Time Resolved Fluorescence (HTRF) Assay kit (Cisbio, Cat. No. 63ADK055PEB1; Codolet, France) according to the manufacturer's protocol. G-CSF is detected in a sandwich assay format using different specific antibodies, one labeled with Eu3+-Cryptate (donor) and the second with d2 (acceptor). When the dyes are in close proximity, the excitation of the donor with a light source (laser or flash lamp) triggers a Fluorescence Resonance Energy Transfer (FRET) towards the acceptor, which in turn fluoresces at a specific wavelength (665 nm). […]

The subject of data set [6] is Th17 conditioned media stimulated gene panel in NHKs. Put plainly: QuantiGene Plex gene panel expression, NHK stimulated with Th17 conditioned media. The settings on record: FIG. 6. Type of data set: cell-based, human. The procedure: Peripheral blood mononuclear cells (PBMCs) were isolated from human whole blood using Ficoll-Paque density gradient centrifugation (Ficoll-Paque, GE, 17-1440-03) using SepMate tubes (StemCell technologies, 85450). […] CD4+ T cells were isolated through manual magnetic labeling and cell separation (LS column, Miltenyi Biotec, 130-042-401) following vendor protocol (Miltenyi Biotec, 130 533). CD4+ T cells were seeded on 24-well plates at 2×10^6 cells/mL in 500 μL of RPMI Media (RPMI 1640, Hyclone, SH30096.01) supplemented with 10% FBS, penicillin-streptomycin (Sigma, P0781-100 ml), L-glutamine (Sigma, G7513-100ML), and 2-Mercaptoethanol (Gibco, 21985-023). […] The level of human IL-17A in Th17 conditioned media was determined using DuoSet ELISA kits following the vendor protocol (R&D Systems, DY317-05, DY5194-05, DY1335B-05). Human IL-17A was detected in Th17 conditioned media, while unstimulated, undifferentiated CD4+ T cells had no detectable level of IL-17A in the supernatant (FIG. 1).
A panel of IL-17A-stimulated genes was identified, initially through microarray experiments and later confirmed by RT-PCR, to assess modulators of the IL-17 pathway as shown in Table 2. Expression levels of the genes in the panel were measured using QuantiGene® Plex Gene Expression assay in human keratinocytes treated with human recombinant IL-17A and compounds as described in Example 1. […]

The subject of data set [7] is normal human keratinocytes (NHK). Kind of data set: CellTiter-Glo Luminescent Cell Viability Assay of NHK cells. It counts as cell-based. The settings on record: FIG. 2B. The protocol:
To test whether treatment with IL-17 or compounds affected cell viability, cells were tested with CellTiter-Glo® Luminescent Cell Viability Assay (Promega; Madison, Wis.) according to manufacturer's protocol.
The substrate vial and the buffer solution were equilibrated at room temperature before reconstitution. The lyophilized substrate solution was reconstituted by adding the appropriate volume of buffer to the substrate vial. After brief mixing, equal volumes of the reconstituted reagent were added to the volume of media in each well of the plate containing cells. The plate was shaken briefly to mix and incubated at room temperature for 10 minutes then luminescent signal was read using an Envision plate reader.
Percent cell viability was calculated as:
% viability=((Sample RLU/No stimulation Avg,RLU)*100).
For orientation: Cellular ATP, detected with luciferase, serves as a proxy for viable cell number.

Where [8] appears, read: rhIL-17A stimulated NHK assay (footnote 14), 5 ng/ml rhIL-17A.
Where [9] appears, read: Homo sapiens, Keratinocyte, rhIL-17A stimulated NHK assay (footnote 14), 5 ng/ml rhIL-17A.

For `OCCC#Cc1nc(-c2ccc(F)cc2)c(-c2ccncc2)n1CCCc1ccccc1` [Modulator P38i, RWJ 67657], in data set [1] (NHK, rhIL-17A), the “inhibition of IL-17 stimulated G-CSF production” value is “did not inhibit” and the “dose dependent G-CSF levels” value is listed as “does not inhibit G-CSF levels”. The IC50 in data set [2] is 3 nM. Besides, the “expression of the gene panel” value in data set [3] is recorded as “did not lead to an overall reduction in expression of the gene panel”. Besides, the IC50 in data set [4] was 11 nM.
Secukinumab: in data set [5], the “inhibition of G-CSF production” value is reported as “inhibited G-CSF production”. Also, the IC50 in data set [5] and in data set [1] (setting [8]) was 0.2 nM throughout. Besides, the “expression of the gene panel” value in data set [6] and in data set [3] was “inhibited expression of the gene panel in a dose-dependent manner” in each case. The “inhibition of IL-17 stimulated G-CSF production” value in data set [1] (NHK, rhIL-17A) was “inhibited G-CSF production at all concentrations tested”.
Take Brodalumab: the “inhibition of G-CSF production” value in data set [5] was “inhibited G-CSF production”. Further, the IC50 was 0.082 nM in data set [5] and 0.07 nM in data set [1] (setting [8]). Moreover, the “expression of the gene panel” value in data set [6] and in data set [3] was “inhibited expression of the gene panel in a dose-dependent manner” in each case. In data set [1] (NHK, rhIL-17A), the “inhibition of IL-17 stimulated G-CSF production” value is listed as “inhibited G-CSF production at all concentrations tested”.
As to `O=C(CCC(F)(F)F)N[C@@H](c1ccn2cc([C@@H](NC(=O)c3conc3CCC(F)(F)F)C3CCC(F)(F)CC3)nc2n1)C1CC1` [IL-17Ai-5], 86.2 nM corresponded to half-maximal inhibition in data set [1] (setting [9]) (IC50).
Same read-out and setting: the result for `Cc1nonc1C(=O)N[C@H](c1cn2ncc([C@H](NC(=O)CCC(F)(F)F)C3CC3)cc2n1)C1CCC(F)(F)CC1` (stereo in doubt) [IL-17Ai-3] reads 72.8 nM.
Regarding `Cc1nc(Nc2n[nH]c3c2CN(C(=O)N[C@H](CN(C)C)c2ccccc2)C3(C)C)c2sccc2n1` [PAKi, PF-3758309], the cell toxicity result in data set [7] (highest dose of 20 μM) is reported as “toxic to the cells”. Further, the cell toxicity result in data set [7] (tested concentrations other than 20 μM PAK inhibitor) is on record as “well tolerated”. Besides, the IC50 in data set [1] (Homo sapiens, Keratinocyte) is 2270 nM. In data set [1] (NHK, rhIL-17A), the “inhibition of IL-17 stimulated G-CSF production” value is “did not inhibit” and the “dose dependent G-CSF levels” value is listed as “some dose-dependent inhibition of G-CSF production with much lower potency compared to IL-17A inhibitors”. The G-CSF production result in data set [1] (NHK, rhIL-17A, highest dose of 20 μM) was “reduced G-CSF production”. In addition, the “expression of the gene panel” value in data set [3] is on record as “did not lead to an overall reduction in expression of the gene panel”.
